Test results from ChEMBL document CHEMBL4024706 (Eur J Med Chem, 2017).

Columns and labels:
[1] = target: Mitogen-activated protein kinase kinase kinase kinase 3 (Homo sapiens) (UniProt Q8IVH8); test: Inhibition of wild-type human partial length MAP4K3 (M1 to D301 residues) expressed in bacterial expression system assessed as residual activity at 1 uM by Kinomescan method relative to control
[2] = target: Receptor-type tyrosine-protein kinase FLT3 (Homo sapiens) (UniProt P36888); test: Inhibition of wild-type human partial length FLT3 (V592 to Y969 residues) expressed in bacterial expression system assessed as residual activity at 1 uM by Kinomescan method relative to control
[3] = target: Phosphatidylinositol 5-phosphate 4-kinase type-2 beta (Homo sapiens) (UniProt P78356); test: Inhibition of wild-type human full length PIP5K2B (M1 to T416 residues) expressed in bacterial expression system assessed as residual activity at 1 uM by Kinomescan method relative to control
[4] = target: Casein kinase I isoform gamma-1 (Homo sapiens) (UniProt Q9HCP0); test: Inhibition of wild-type human partial length CSNK1G1 (T15 to S353 residues) expressed in bacterial expression system assessed as residual activity at 1 uM by Kinomescan method relative to control
[5] = target: Ribosomal protein S6 kinase alpha-6 (Homo sapiens) (UniProt Q9UK32); test: Inhibition of wild-type human partial length C-terminal RSK4 kinase domain 2 (I401 to Y711 residues) expressed in bacterial expression system assessed as residual activity at 1 uM by Kinomescan method relative to control
[6] = target: Tyrosine-protein kinase FRK (Homo sapiens) (UniProt P42685); test: Inhibition of wild-type human partial length FRK (A215 to F503 residues) expressed in bacterial expression system assessed as residual activity at 1 uM by Kinomescan method relative to control
[7] = target: Mitogen-activated protein kinase kinase kinase 5 (Homo sapiens) (UniProt Q99683); test: Inhibition of wild-type human partial length ASK1 (E648 to S964 residues) expressed in bacterial expression system assessed as residual activity at 1 uM by Kinomescan method relative to control
[8] = target: Mitogen-activated protein kinase kinase kinase 9 (Homo sapiens) (UniProt P80192); test: Inhibition of wild-type human partial length MLK1 (V88 to W426 residues) expressed in bacterial expression system assessed as residual activity at 1 uM by Kinomescan method relative to control
U2932 = test: Induction of apoptosis in human U2932 cells assessed as induction of PARP cleavage after 48 hrs by immunoblot; assay type: functional, cell-based
[9] = target: Calcium/calmodulin-dependent protein kinase kinase 2 (Homo sapiens) (UniProt Q96RR4); test: Inhibition of wild-type human partial length CAMKK2 (D65 to V471 residues) expressed in bacterial expression system assessed as residual activity at 1 uM by Kinomescan method relative to control
[10] = target: Casein kinase I isoform delta (Homo sapiens) (UniProt P48730); test: Inhibition of wild-type human full length CSNK1D (M1 to K409 residues) expressed in bacterial expression system assessed as residual activity at 1 uM by Kinomescan method relative to control
[11] = target: Tyrosine-protein kinase BTK (Homo sapiens, UniProt Q06187, C481S); test: Irreversible inhibition of recombinant full length 3'-FLAG-tagged BTK C481S mutant (unknown origin) expressed in HEK293T cells assessed as reduction in Y223 phosphorylation measured after 4 hrs by Western blot method; assay type: cell-based
[12] = target: Dual specificity mitogen-activated protein kinase kinase 2 (Homo sapiens) (UniProt P36507); test: Inhibition of wild-type human full length MEK2 (M1 to V400 residues) expressed in mammalian expression system assessed as residual activity at 1 uM by Kinomescan method relative to control
[13] = target: Myosin light chain kinase 2, skeletal/cardiac muscle (Homo sapiens) (UniProt Q9H1R3); test: Inhibition of wild-type human partial length MYLK2 (D258 to K570 residues) expressed in bacterial expression system assessed as residual activity at 1 uM by Kinomescan method relative to control
[14] = target: Mitogen-activated protein kinase kinase kinase 6 (Homo sapiens) (UniProt O95382); test: Inhibition of wild-type human partial length ASK2 (M278 to R972 residues) expressed in mammalian expression system assessed as residual activity at 1 uM by Kinomescan method relative to control
[15] = target: Tyrosine-protein kinase SYK (Homo sapiens) (UniProt P43405); test: Inhibition of wild-type human partial length SYK (D354 to N635 residues) expressed in bacterial expression system assessed as residual activity at 1 uM by Kinomescan method relative to control
[16] = target: Casein kinase II subunit alpha (Homo sapiens) (UniProt P68400); test: Inhibition of wild-type human full length CSNK2A1 (M1 to Q391 residues) expressed in mammalian expression system assessed as residual activity at 1 uM by Kinomescan method relative to control
[17] = target: Dual specificity protein kinase CLK3 (Homo sapiens) (UniProt P49761); test: Inhibition of wild-type human full length CLK3 (M1 to R490 residues) expressed in bacterial expression system assessed as residual activity at 1 uM by Kinomescan method relative to control
[18] = target: Serine/threonine-protein kinase PLK3 (Homo sapiens) (UniProt Q9H4B4); test: Inhibition of wild-type human partial length PLK3 (A42 to L334 residues) expressed in mammalian expression system assessed as residual activity at 1 uM by Kinomescan method relative to control
[19] = target: Serine/threonine-protein kinase pim-2 (Homo sapiens) (UniProt Q9P1W9); test: Inhibition of wild-type human partial length PIM2 (M1 to E291 residues) expressed in bacterial expression system assessed as residual activity at 1 uM by Kinomescan method relative to control
[20] = target: Serine/threonine-protein kinase/endoribonuclease IRE1 (Homo sapiens) (UniProt O75460); test: Inhibition of wild-type human partial length ERN1 (S551 to E852 residues) expressed in mammalian expression system assessed as residual activity at 1 uM by Kinomescan method relative to control
[21] = target: 5'-AMP-activated protein kinase catalytic subunit alpha-1 (Homo sapiens) (UniProt Q13131); test: Inhibition of wild-type human partial length AMPK alpha1 (M1 to E306 residues) expressed in bacterial expression system assessed as residual activity at 1 uM by Kinomescan method relative to control
[22] = Tmax in Sprague-Dawley rat at 10 mg/kg, po by LC-MS/MS method; assay type: ADME, organism-based; settings: in vivo
Homo sapiens = organism: Homo sapiens; test: Inhibition of human partial length FLT3 ITD/F691L double mutant expressed in bacterial expression system assessed as residual activity at 1 uM by Kinomescan method relative to control
[23] = target: Serine/threonine-protein kinase 4 (Homo sapiens) (UniProt Q13043); test: Inhibition of wild-type human full length MST1 (M1 to F487 residues) expressed in bacterial expression system assessed as residual activity at 1 uM by Kinomescan method relative to control
[24] = target: Serine/threonine-protein kinase PAK 2 (Homo sapiens) (UniProt Q13177); test: Inhibition of wild-type human partial length PAK2 (P151 to R525 residues) expressed in bacterial expression system assessed as residual activity at 1 uM by Kinomescan method relative to control
Chain of Serine/threonine-protein kinase PAK 2 (Homo sapiens) (Q13177 whole entry, the tested form may be a part): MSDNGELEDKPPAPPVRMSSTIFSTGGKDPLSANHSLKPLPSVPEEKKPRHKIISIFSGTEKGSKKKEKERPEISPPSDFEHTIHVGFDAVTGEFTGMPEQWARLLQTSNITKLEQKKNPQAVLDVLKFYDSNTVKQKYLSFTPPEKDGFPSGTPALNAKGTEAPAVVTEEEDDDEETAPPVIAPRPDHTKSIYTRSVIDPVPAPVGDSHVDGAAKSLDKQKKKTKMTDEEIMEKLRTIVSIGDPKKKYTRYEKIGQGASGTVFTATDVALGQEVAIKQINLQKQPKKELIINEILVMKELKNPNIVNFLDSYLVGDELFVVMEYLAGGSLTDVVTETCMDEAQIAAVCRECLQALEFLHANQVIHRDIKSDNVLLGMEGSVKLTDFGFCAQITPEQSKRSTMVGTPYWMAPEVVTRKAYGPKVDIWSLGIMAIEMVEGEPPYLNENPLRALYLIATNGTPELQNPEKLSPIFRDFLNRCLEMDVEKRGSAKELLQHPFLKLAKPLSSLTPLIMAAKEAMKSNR

Chain of Casein kinase I isoform delta (Homo sapiens) (P48730 whole entry, looked up, the tested form may be a part, canonical isoform): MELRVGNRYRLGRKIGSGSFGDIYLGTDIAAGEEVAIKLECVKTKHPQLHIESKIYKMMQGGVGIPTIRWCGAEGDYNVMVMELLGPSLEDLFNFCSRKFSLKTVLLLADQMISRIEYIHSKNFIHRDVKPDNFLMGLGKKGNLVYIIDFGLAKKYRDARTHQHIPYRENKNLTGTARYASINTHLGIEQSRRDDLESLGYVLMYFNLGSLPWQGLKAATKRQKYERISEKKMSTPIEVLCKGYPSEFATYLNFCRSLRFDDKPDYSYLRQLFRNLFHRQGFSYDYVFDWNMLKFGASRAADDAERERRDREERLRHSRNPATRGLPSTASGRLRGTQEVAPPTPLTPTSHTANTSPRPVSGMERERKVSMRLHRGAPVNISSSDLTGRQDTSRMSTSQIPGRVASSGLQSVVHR
Chain of Phosphatidylinositol 5-phosphate 4-kinase type-2 beta (Homo sapiens) (P78356 whole entry, the tested form may be a part, canonical isoform): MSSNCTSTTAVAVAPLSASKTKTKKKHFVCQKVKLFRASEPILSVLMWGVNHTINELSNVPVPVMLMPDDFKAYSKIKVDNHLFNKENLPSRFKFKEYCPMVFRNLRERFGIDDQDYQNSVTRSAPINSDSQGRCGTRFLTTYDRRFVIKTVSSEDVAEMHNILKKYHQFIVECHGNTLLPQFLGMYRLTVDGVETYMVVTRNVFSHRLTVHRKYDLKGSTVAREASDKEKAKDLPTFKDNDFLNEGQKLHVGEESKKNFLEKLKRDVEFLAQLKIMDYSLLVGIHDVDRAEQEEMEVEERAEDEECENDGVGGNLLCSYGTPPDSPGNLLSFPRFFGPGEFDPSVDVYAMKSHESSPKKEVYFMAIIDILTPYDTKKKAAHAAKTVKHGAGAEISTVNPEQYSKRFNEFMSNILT
Chain of Myosin light chain kinase 2, skeletal/cardiac muscle (Homo sapiens) (Q9H1R3 whole entry, the tested form may be a part): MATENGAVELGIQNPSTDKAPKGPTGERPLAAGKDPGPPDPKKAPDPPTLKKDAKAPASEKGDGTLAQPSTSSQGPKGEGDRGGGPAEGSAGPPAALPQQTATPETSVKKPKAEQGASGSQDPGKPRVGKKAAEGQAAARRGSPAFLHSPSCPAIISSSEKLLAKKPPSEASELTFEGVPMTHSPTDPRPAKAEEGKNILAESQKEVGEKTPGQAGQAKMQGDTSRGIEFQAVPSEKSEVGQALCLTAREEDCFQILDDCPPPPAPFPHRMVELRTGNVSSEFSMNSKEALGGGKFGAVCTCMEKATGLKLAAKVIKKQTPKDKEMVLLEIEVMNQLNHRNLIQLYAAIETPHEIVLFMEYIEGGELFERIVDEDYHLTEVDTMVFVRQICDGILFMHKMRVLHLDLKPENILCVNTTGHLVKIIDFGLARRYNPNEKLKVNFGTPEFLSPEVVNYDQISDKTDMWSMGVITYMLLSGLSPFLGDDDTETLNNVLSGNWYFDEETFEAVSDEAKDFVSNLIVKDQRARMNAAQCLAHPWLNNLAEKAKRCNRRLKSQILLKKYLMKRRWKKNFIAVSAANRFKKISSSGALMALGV
Chain of Tyrosine-protein kinase FRK (Homo sapiens) (P42685 whole entry, the tested form may be a part): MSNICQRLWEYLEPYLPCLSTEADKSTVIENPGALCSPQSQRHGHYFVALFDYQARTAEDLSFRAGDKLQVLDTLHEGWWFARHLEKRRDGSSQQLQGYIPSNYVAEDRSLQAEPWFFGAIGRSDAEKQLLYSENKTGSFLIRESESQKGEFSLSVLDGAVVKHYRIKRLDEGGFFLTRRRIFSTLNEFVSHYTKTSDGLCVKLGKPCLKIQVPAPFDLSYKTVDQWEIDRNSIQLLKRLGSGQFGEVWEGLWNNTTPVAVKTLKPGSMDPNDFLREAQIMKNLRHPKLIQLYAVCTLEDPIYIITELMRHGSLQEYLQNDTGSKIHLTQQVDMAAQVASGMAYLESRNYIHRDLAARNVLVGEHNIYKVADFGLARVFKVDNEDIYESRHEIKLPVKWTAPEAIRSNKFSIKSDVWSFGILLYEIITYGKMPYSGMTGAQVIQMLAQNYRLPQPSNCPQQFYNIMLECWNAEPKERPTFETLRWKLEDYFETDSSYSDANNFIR
Chain of Serine/threonine-protein kinase pim-2 (Homo sapiens) (Q9P1W9 whole entry, looked up, the tested form may be a part): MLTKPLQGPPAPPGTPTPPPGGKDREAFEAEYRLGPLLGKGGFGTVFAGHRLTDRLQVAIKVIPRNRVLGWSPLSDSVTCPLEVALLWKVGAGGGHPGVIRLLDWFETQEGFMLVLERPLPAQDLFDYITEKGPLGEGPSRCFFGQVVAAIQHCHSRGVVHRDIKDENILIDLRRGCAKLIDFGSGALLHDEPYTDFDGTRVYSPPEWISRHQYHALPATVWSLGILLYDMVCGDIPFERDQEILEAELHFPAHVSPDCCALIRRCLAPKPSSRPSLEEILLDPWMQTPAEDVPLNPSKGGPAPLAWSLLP
Chain of Serine/threonine-protein kinase/endoribonuclease IRE1 (Homo sapiens) (O75460 19-977 limits assumed): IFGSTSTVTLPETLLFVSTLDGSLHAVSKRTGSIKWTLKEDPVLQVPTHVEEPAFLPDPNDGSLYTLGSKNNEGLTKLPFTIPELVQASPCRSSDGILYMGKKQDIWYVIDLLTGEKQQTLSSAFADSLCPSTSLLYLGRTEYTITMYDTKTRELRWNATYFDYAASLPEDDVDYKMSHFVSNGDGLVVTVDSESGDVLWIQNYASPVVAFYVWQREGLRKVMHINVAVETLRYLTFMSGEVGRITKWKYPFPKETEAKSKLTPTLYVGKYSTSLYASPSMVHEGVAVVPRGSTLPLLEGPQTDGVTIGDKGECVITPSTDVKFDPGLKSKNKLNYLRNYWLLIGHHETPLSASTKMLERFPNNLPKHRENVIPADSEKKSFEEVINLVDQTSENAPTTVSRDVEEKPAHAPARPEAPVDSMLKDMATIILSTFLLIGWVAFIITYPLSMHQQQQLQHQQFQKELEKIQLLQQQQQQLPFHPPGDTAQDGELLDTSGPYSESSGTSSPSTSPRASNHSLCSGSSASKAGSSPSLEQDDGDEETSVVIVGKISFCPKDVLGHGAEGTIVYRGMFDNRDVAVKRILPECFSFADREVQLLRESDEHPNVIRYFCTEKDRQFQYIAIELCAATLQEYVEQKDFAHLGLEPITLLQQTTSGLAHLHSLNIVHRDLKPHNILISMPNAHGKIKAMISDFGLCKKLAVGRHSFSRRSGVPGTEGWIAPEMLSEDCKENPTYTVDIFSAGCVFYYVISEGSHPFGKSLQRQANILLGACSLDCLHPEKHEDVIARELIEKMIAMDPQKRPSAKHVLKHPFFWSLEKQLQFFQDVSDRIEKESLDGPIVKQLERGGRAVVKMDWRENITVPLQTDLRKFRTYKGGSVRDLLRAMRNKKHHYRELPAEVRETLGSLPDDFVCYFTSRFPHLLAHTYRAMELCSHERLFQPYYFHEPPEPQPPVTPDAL
Chain of Ribosomal protein S6 kinase alpha-6 (Homo sapiens) (Q9UK32 whole entry, the tested form may be a part): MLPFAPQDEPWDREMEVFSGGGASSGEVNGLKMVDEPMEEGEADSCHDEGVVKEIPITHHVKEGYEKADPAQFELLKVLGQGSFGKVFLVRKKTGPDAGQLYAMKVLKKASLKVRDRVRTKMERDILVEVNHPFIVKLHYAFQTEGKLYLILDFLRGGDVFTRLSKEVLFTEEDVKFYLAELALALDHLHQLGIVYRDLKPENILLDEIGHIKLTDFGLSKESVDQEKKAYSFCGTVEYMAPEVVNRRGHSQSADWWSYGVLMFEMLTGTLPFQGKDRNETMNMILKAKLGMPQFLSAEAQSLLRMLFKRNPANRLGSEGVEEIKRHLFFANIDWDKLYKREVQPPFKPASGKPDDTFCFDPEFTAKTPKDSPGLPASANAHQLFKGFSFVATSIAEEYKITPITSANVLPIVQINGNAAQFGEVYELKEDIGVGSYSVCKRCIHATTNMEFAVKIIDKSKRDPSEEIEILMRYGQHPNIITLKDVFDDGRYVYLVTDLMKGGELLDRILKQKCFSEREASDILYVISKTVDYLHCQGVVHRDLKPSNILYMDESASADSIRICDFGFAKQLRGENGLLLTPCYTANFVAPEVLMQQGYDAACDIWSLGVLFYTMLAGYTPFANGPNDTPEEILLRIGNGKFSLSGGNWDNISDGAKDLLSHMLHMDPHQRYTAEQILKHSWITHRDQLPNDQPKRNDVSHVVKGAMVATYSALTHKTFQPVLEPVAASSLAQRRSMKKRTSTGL
Chain of Serine/threonine-protein kinase 4 (Homo sapiens) (Q13043 whole entry, the tested form may be a part): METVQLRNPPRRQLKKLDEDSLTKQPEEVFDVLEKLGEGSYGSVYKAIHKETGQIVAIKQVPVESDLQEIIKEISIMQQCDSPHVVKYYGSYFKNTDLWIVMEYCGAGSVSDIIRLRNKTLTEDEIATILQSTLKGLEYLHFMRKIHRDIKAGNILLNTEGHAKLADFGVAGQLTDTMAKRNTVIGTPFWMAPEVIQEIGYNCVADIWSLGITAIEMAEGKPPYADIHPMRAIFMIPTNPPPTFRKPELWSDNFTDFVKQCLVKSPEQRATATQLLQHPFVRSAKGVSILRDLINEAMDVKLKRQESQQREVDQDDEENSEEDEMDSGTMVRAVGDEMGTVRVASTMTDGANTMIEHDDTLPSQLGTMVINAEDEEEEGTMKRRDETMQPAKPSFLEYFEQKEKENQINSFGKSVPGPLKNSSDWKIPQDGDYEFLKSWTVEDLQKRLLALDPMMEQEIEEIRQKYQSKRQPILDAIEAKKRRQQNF

With `C=CC(=O)Nc1cc(Nc2cc(-c3cccc(NC(=O)c4ccc(C(C)(C)C)cc4)c3C)cn(C)c2=O)ccc1C(=O)N1CCOCC1` the Activity [1] was 95%, the Activity [2] was 94% and the Activity [3] was 82%. It also gave an Activity [4] of 98%, an Activity [5] of 89% and an Activity [6] of 84%. For the same molecule, the Activity [7] was 100%, the Activity [8] was 99% and the Activity (U2932) was “Dose-dependent effect”. It also gave an Activity [9] of 100%, an Activity [10] of 99% and an EC50 [11] of over 100 nM. The Activity [12] was 100%, the Activity [13] was 100% and the Activity [14] was 95%. The Activity [15] was 92%, the Activity [16] was 100% and the Activity [17] was 98%. It also gave an Activity [18] of 95%, an Activity [19] of 90% and an Activity [20] of 100%. The Activity [21] was 89%, the Tmax [22] was 30 min and the Activity (Homo sapiens) was 87%. The Activity [23] was 95% and the Activity [24] was 81%.
